Measurements reported in the NIST ThermoML archive (doi:10.1021/je060200b).

Test: molar heat capacity at constant pressure; xn = mol fraction of the nth substance listed
Details: 101 kPa, Liquid

BrCCCCCBr [1,5-dibromopentane] + CCCCCCC
molar heat capacity at constant pressure [J/K/mol]
Details | x1 = 0.1006 | x1 = 0.1994 | x1 = 0.3003 | x1 = 0.4008 | x1 = 0.5004 | x1 = 0.5999 | x1 = 0.6995 | x1 = 0.8002 | x1 = 0.899 | x1 = 1
303.15 K | – | – | – | – | – | 223.01 | 222.58 | 222.36 | 222.22 | 221.95
304.15 K | 225.49 | 224.9 | 224.44 | 224.26 | 223.94 | 223.37 | 222.93 | 222.44 | 222.36 | 222.17
305.15 K | 225.96 | 225.3 | 224.89 | 224.59 | 224.11 | 223.63 | 223.17 | 222.81 | 222.72 | 222.41
306.15 K | 226.32 | 225.5 | 225.09 | 224.8 | 224.39 | 223.91 | 223.45 | 223.05 | 222.99 | 222.63
307.15 K | 226.59 | 225.83 | 225.41 | 225.15 | 224.77 | 224.05 | 223.72 | 223.33 | 223.23 | 222.85
308.15 K | 227.03 | 226.31 | 225.84 | 225.38 | 225.09 | 224.36 | 223.89 | 223.55 | 223.34 | 223.09
309.15 K | 227.44 | 226.66 | 226.09 | 225.8 | 225.27 | 224.76 | 224.26 | 223.77 | 223.6 | 223.31
310.15 K | 227.81 | 226.87 | 226.5 | 226.12 | 225.7 | 224.95 | 224.52 | 224.04 | 223.81 | 223.56
311.15 K | 228.09 | 227.25 | 226.85 | 226.31 | 225.87 | 225.3 | 224.66 | 224.19 | 224.19 | 223.78
312.15 K | 228.59 | 227.7 | 227.09 | 226.6 | 226.24 | 225.58 | 225.06 | 224.56 | 224.44 | 224.03
313.15 K | 228.91 | 228.06 | 227.49 | 227.05 | 226.53 | 225.84 | 225.31 | 224.81 | 224.67 | 224.26
